# Measured values published in patent US20090286802A1, “High Dose Folic Acid Compositions for Vascular Dysfunction” (priority 2005, published 2009).
# Where “and” joins values, the source holds several entries; their conditions need not be identical. Equal values may be shown once.
# Tests used:
# [1] = oral administration; cited from earlier work
# [2] = test system: patients with ischemic heart disease; test: Hemodynamic variables (HR, RPP, blood pressure) at rest and during adenosine, double-blind placebo-controlled crossover study; format: in vivo, human; settings: for HR / DBP (diastolic blood pressure) / MAP (mean arterial blood pressure) / RPP (rate pressure product, SAP × HR) / SAP (systolic blood pressure): folate 30 mg oral, mean ± SD
# Method: (§1) 14 patients with ischemic heart disease, age 62±12yr. (mean±SD), were enrolled in a double-blind, placebo controlled crossover trial. Basal and adenosine-stimulated myocardial blood flow (MBF) were determined by PET and myocardial flow reserve was calculated. Each patient was studied after ingestion of placebo and after ingestion of 30 mg folic acid. Myocardial zones were prospectively defined physiologically as “NORMAL” vs “ABNORMAL” based on MBF response to Ado 140 (NORMAL=MBF>1.65 ml/min/g). ABNORMAL and NORMAL zones were analyzed separately in a patient based analysis.
# Patient Population: Adult male and female patients with coronary artery disease and normal serum homocysteine concentration (HCY<12 μM) were recruited from the greater Boston area. Coronary artery disease was defined as the presence of a >50% stenosis in at least one coronary artery identified by coronary arteriography within the last 5 years. Exclusion criteria included: inability to maintain a stable medical regimen during the study period, concurrent use of folic acid, or myocardial infarction or coronary intervention within the proceeding 3 months. The study protocol was approved by the local Human Research Committee and informed consent was obtained from each subject.
# (§2) Study Drug Administration. Subjects were enrolled in a double-blinded, placebo-controlled, crossover study during which folate syrup (30 mg) or similar tasting placebo syrup was administered orally in two divided doses, 10-12 hours and 1 hour prior to MBF measurements. […] Folate and placebo were administered at least one week apart, in random order, and in a double-blinded manner.
# (§3) Myocardial Blood Flow Measurements. Vasoactive medications were withheld for 3-5 half-lives, and subjects were asked to avoid caffeinated beverages for 24 h before blood flow measurements. MBF was assessed with PET (GE Medical Systems Scanditronix PC4096), approximately 1-hr after ingestion of the second dose of the study drug. PET measurements of MBF (^13N-ammonia method) were performed at rest and during the infusion of two doses of adenosine (70 and 140 mcg/kg/min), using a previously described method (Huggins, G. S., et al., Circulation 1998; 98:1291-6).
# Statistical Analysis. Data are expressed as mean±SD. A repeated measures ANOVA was performed, (Statview v 4.0, Abacus Concepts), with terms for the order of folate vs. placebo administration, patient, and observations (blood pressure, MBF and G) for the three repeated measurements (adenosine 0, 70, and 140). To control for multiple testing, prospectively defined pair-wise t-tests comparing folate to placebo at each of the three adenosine doses were performed only if there was a significant main effect for folate or a significant interaction of folate with adenosine in the ANOVA analysis. Values of P<0.05 were considered significant.
# [3] = test system: patients with ischemic heart disease; test: Myocardial blood flow (MBF) by PET (13N-ammonia) at rest and during adenosine, folate crossover study; format: in vivo, human; settings: for effect on myocardial blood flow in NORMAL regions: folate vs. placebo
# Method: as §1, §2, §3
# PET Image Analysis: Three short axis rings corresponding to the proximal, middle and distal thirds of the left ventricle were constructed for each K1 scan and MBF was measured within 24 standard areas of interest as described previously (Huggins, G. S., et al., Circulation 1998; 98:1291-6). Data analysis was performed without knowledge of treatment order. To determine the variability of the MBF measurement, two readers independently assessed adenosine-stimulated MBF in 120 segments in 5 subjects and the difference between and within readers was calculated. The mean (±SD) intra-, and inter-observer difference was 0.03±0.10 and 0.03±0.17 ml/min/gm, respectively.
# Prospective Definition of Myocardial Zones. MBF in regions supplied by stenotic conduit vessels, which were expected to have abnormal dilator capacity, were prospectively examined separately from regions with normal dilator capacity. […] Accordingly, myocardial zones were defined physiologically as “NORMAL” vs. “ABNORMAL” based on MBF response to Ado 140 during the placebo condition. Myocardial zones with MBF with Ado 140 of <1.65 ml/min/g during placebo condition were defined as ABNORMAL. The corresponding myocardial regions were identified during the folate condition, and were labeled ABNORMAL regardless of their MBF during the folate condition. Values for ABNORMAL MBF were combined and averaged to obtain a single value of ABNORMAL blood flow for each patient at each condition, (placebo and folic acid) for each scan acquisition (rest, adenosine 70, or adenosine 140). A patient-based analysis of MBF was performed.
# Dilator reserve for both NORMAL and ABNORMAL zones was defined as the difference between peak MBF and rest MBF. Peak MBF was defined as the higher of the two average MBF values obtained during adenosine (i.e, the greater of the average MBF obtained during adenosine 70 vs. adenosine 140 dose). This was done, since in patients with IHD, coronary “steal” may occur (Holmvang, G., et al., Circulation 1999; 99:2510-6). and so cause underestimation of dilator reserve in ABNORMAL regions.
# [4] = test system: patients with stable chronic ischemic heart disease; test: Myocardial blood flow by PET (13N-ammonia), sildenafil crossover study; format: in vivo, human; settings: for Myocardial Blood Flow: abnormal zones, sildenafil 100 mg given ~2-3 hrs before, mean ± SD
# Method: The effects of sildenafil on myocardial blood flow were assessed. The chemical name for sildenafil is 5-[2-ethoxy-5(-4-methyl piperazine-1-ylsulfonyl)phenyl]-1-methyl-3-propyl-1,6-dihydro-7H-pyrazolo[4,3-d]pyrimidin-7-one. A study design similar to that used to test the effects of folate as described herein was used. In brief, myocardial blood flow (MBF) was measured in 14 patients with stable chronic ischemic heart disease using positron emission tomography with ^13N-ammonia. Patients were studied in double blind, placebo control, cross-over design with 100 mg sildenafil (or placebo) given ˜2-3 hrs prior to measurements of hemodynamics and myocardial blood flow at rest and during administration of adenosine at (140 μg/kg/min). Sildenafil improved myocardial blood flow in abnormal zones (Table 4). Also shown are data of the effect of folate (30 mg) on myocardial blood flow.
# [5] = Ado 70, folate 30 mg oral, mean ± SD
# [6] = Ado 140, folate 30 mg oral, mean ± SD
# [7] = Peak, folate 30 mg oral, mean ± SD
# [8] = Rest, folate 30 mg oral, mean ± SD
# [9] = folate 30 mg oral, mean ± SD, listed as folate
smiles,measurement,setting,value
"Nc1nc2ncc(CNc3ccc(C(=O)N[C@@H](CCC(=O)O)C(=O)O)cc3)nc2c(=O)[nH]1 [Folate, N[4-[[(2-amino-1,4-dihydro-4-oxo-6-pteridinyl)methyl]amino]benzoyl]-L-glutamic acid]",time to peak blood levels after administration,[1],30 to 60 min
same,HR,[2]; Ado 70 (adenosine 70 μg/kg/min),70 ± 14 bpm
same,DBP (diastolic blood pressure),[2]; Ado 70,68 ± 11 mmHg
same,MAP (mean arterial blood pressure),[2]; Ado 70,95 ± 13 mmHg
same,"RPP (rate pressure product, SAP × HR)",[2]; Ado 70,8604 ± 2484 mmHg × bpm
same,SAP (systolic blood pressure),[2]; Ado 70,123 ± 18 mmHg
same,HR,[2]; Ado 140 (adenosine 140 μg/kg/min),82 ± 15 bpm
same,DBP (diastolic blood pressure),[2]; Ado 140,69 ± 10 mmHg
same,MAP (mean arterial blood pressure),[2]; Ado 140,95 ± 15 mmHg
same,"RPP (rate pressure product, SAP × HR)",[2]; Ado 140,9998 ± 3066 mmHg × bpm
same,SAP (systolic blood pressure),[2]; Ado 140,120 ± 21 mmHg
same,DBP (diastolic blood pressure),[2]; Rest,70 ± 9 mmHg
same,HR,[2]; Rest,61 ± 8 bpm
same,MAP (mean arterial blood pressure),[2]; Rest,96±11 mmHg and 96±2 mmHg
same,"RPP (rate pressure product, SAP × HR)",[2]; Rest,7483 ± 1798 mmHg × bpm
same,SAP (systolic blood pressure),[2]; Rest,121 ± 15 mmHg
same,reduction in diastolic blood pressure,[2]; folate 30 mg vs. placebo,5 mm Hg
same,change in HR,[2]; folate vs. placebo,no significant change
same,change in RPP,[2]; folate vs. placebo,no significant change
same,"effect on systolic, diastolic and mean arterial blood pressures","[2]; folate vs. placebo, P<0.01 ANOVA",significant reduction
same,patients with significant reduction in blood pressure after high-dose folate,[2]; without changes in homocysteine concentration,11/14
same,"Myocardial Blood Flow, ABNORMAL zones",[3]; [5],1.60 ± 1.15 ml/min/gm
same,"Myocardial Blood Flow, NORMAL zones",[3]; [5],2.01 ± 0.88 ml/min/gm
same,Ratio ABN:WNL (ABNORMAL/NORMAL zone MBF),[3]; [5],0.84 ± 0.37
same,"Myocardial Blood Flow, ABNORMAL zones",[3]; [6],1.76 ± 0.75 ml/min/gm
same,"Myocardial Blood Flow, NORMAL zones",[3]; [6],2.72 ± 0.74 ml/min/gm
same,Ratio ABN:WNL (ABNORMAL/NORMAL zone MBF),[3]; [6],0.67 ± 0.21
same,"Myocardial Blood Flow, ABNORMAL zones","[3]; Peak (adenosine-stimulated), folate 30 mg oral, mean ± SD",2.16±1.01 ml/min/gm
same,"Myocardial Blood Flow, ABNORMAL zones","[3]; Peak (adenosine-stimulated), folate 30 mg oral, mean ± SD, listed as folic acid",2.16±1.01 ml/min/gm
same,"Myocardial Blood Flow, NORMAL zones",[3]; [7],2.86 ± 0.67 ml/min/gm
same,Ratio ABN:WNL (ABNORMAL/NORMAL zone MBF),[3]; [7],0.75±0.24
same,"Myocardial Blood Flow, ABNORMAL zones",[3]; [8],0.74 ± 0.27 ml/min/gm
same,"Myocardial Blood Flow, NORMAL zones",[3]; [8],0.81 ± 0.19 ml/min/gm
same,Ratio ABN:WNL (ABNORMAL/NORMAL zone MBF),[3]; [8],0.95 ± 0.17
same,patients in whom flow reserve increased in ABNORMAL zones relative to NORMAL zones,[3]; after folate,83 % of patients
same,patients in whom peak MBF increased in ABNORMAL zones relative to NORMAL zones,[3]; after folate,85 % of patients
same,"Dilator Reserve (peak MBF minus rest MBF), ABNORMAL","[3]; folate 30 mg oral, mean ± SD",1.41 ± 1.08 ml/min/gm
same,"Dilator Reserve (peak MBF minus rest MBF), NORMAL","[3]; folate 30 mg oral, mean ± SD",2.12±0.69 ml/min/gm
same,"Dilator Reserve, Ratio ABN:WNL","[3]; folate 30 mg oral, mean ± SD",0.63 ± 0.36
same,"Dilator Reserve (peak MBF minus rest MBF), ABNORMAL",[3]; [9],1.41±1.08 ml/min/gm
same,"Dilator Reserve (peak MBF minus rest MBF), NORMAL",[3]; [9],2.12±0.69 ml/min/gm
same,increase in dilator reserve in ABNORMAL segments,[3]; folate 30 mg vs. placebo,83%
same,increase in peak MBF in ABNORMAL zones,[3]; folate 30 mg vs. placebo,49%
same,effect on myocardial blood flow in NORMAL regions,[3],did not affect
same,effect on myocardial blood flow in NORMAL regions,[3]; listed as folic acid,did not change
same,patients in whom ABNORMAL zone MBF improved after folate,[3]; of 13 patients with abnormal zones,10 patients
"CCCc1nn(C)c2c(=O)[nH]c(-c3cc(S(=O)(=O)N4CCN(C)CC4)ccc3OCC)nc12 [Sildenafil, 5-[2-ethoxy-5(-4-methylpiperazine-1-ylsulfonyl)phenyl]-1-methyl-3-propyl-1,6-dihydro-7H-pyrazolo[4,3-d]pyrimidin-7-one]",Myocardial Blood Flow,[4]; Ado 140,1.58 ± 0.55 ml/min/gm
same,Myocardial Blood Flow,[4]; Rest,0.64 ± 0.20 ml/min/gm
same,effect on myocardial blood flow in abnormal zones,[4]; sildenafil 100 mg vs. placebo,improved
